Measurements: patent publication US20120165319A1, “INHIBITORS OF INTERLEUKIN-1 BETA CONVERTING ENZYME” (VERTEX PHARMACEUTICALS INCORPORATED, priority 1995, published 2012)

How the values were obtained:
[1] = tested on: IL-1β, human peripheral blood mononuclear cells (PBMC); experiment: PBMC cell assay: IL-1β assay with human PBMC or enriched adherent mononuclear cells, LPS-stimulated; format: cell-based
How it was run: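 Mature IL-1β is measured by ELISA in supernatants after 16–18 hr at 37 °C, 5% CO2, with LPS (5 ng/ml final) and test compound (0.1% DMSO final). Cells are human PBMC (6×10^6 cells/ml) or plate-adherent mononuclear cells (2.5−3.0×10^5 per well), and the 5–6 compound concentrations span the ICE Ki.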

[2] = In vivo rat clearance assay; details: plasma, iv
How it was run: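 Rats cannulated a day beforehand received 10–20 mg/kg by intravenous jugular dosing in propylene glycol/saline with 100 mM sodium bicarbonate. Carotid blood was sampled from 0 to 90 min, and plasma was extracted with acetonitrile/0.1% TFA for HPLC quantification. Clearance from non-linear regression pharmacokinetic analysis.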

[3] = biological target: T1, ICE (Homo sapiens, UniProt P29466); experiment: Enzyme assay with UV-visible substrate (visible ICE assay, Succinyl-Tyr-Val-Ala-Asp-pNitroanilide); format: biochemical
T1 sequence (P29466 120-297 limits assumed): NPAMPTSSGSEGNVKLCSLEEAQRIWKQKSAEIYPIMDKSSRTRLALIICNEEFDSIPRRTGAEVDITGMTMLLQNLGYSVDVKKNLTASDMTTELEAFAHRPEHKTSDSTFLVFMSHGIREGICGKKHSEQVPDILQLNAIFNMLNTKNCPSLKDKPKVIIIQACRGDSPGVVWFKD
T1 sequence (P29466 317-404 limits assumed): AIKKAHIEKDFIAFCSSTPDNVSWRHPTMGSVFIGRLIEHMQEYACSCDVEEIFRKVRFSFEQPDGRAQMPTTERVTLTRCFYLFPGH
How it was run: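 Human ICE was preincubated with inhibitor in DMSO and buffer for 15 min at room temperature, then succinyl-Tyr-Val-Ala-Asp-pNA was added. pNA release was followed at 405-603 nm for 20 min at 37° C. Ki and inhibition mode came from fitting rates to standard kinetic equations.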

[4] = Homo sapiens, PBMC, * = values obtained upon reassay

| Compound | IC50 ([1]; Homo sapiens, PBMC, Table 17) | clearance ([2]; Table 17) | Ki ([3]; Table 17) | IC50 [1, 4] | clearance ([2]; 10-20 mg/kg) | Ki ([3]; Table 5) | IC50 ([1]; * = values obtained upon reassay) |
| --- | --- | --- | --- | --- | --- | --- | --- |
| CC(=O)N1C[C@H](NC(=O)c2cc(Cl)c(O)c(Cl)c2)C(=O)N(CC(=O)N[C@H](C=O)CC(=O)O)c2ccccc21 [Compound 656, (3S)-3-[(3S)-2-Oxo-3-(3,5-dichloro, 4-hydroxybenzoyl)amino-5-acetyl-2,3,4,5-tetrahydro-1H-1,5-benzodiazepine-1-acetylamino-]4-oxo-butyric acid] | 2100 nM | 2.9 mL/min/kg | 0.6 nM | – | – | – | – |
| O=C[C@H](CC(=O)O)NC(=O)CN1C(=O)[C@@H](NC(=O)c2cc(Cl)c(O)c(Cl)c2)CN(C(=O)CO)c2ccccc21 [Compound 662, (3S)-3-[(3S)-2-Oxo-3-(3,5-dichloro-4-hydroxybenzoyl)amino-5-(2-hydroxy)acetyl-2,3,4,5-tetrahydro-1H-1,5-benzodiazepine-1-acetylamino]-4-oxo-butyric acid] | 1800 nM | 2.75 mL/min/kg | 0.5 nM | – | – | – | – |
| O=C[C@H](CC(=O)O)NC(=O)CN1C(=O)[C@@H](NC(=O)c2ccccc2)CN(C(=O)CO)c2ccccc21 [Compound 668, (3S)-3-[(3S)-2-Oxo-3-benzoylamino-5-(2-hydroxy)acetyl-2,3,4,5-tetrahydro-1H-1,5-benzodiazepine-1-acetylamino]-4-oxo-butyric acid] | 5200 nM | 29 mL/min/kg | 9 nM | – | – | – | – |
| CC(=O)N1C[C@H](NC(=O)c2cc(C)c(O)c(C)c2)C(=O)N(CC(=O)N[C@H](C=O)CC(=O)O)c2ccccc21 [Compound 671, (3S)-3-[(3S)-2-Oxo-3-(3,5-dimethyl-4-hydroxybenzoyl)amino-5-acetyl-2,3,4,5-tetrahydro-1H-1,5-benzodiazepine-1-acetylamino]-4-oxo-butyric acid] | 2000 nM | 33.2 mL/min/kg | 5 nM | – | – | – | – |
| Cc1cc(C(=O)N[C@H]2CN(C(=O)CO)c3ccccc3N(CC(=O)N[C@H](C=O)CC(=O)O)C2=O)cc(C)c1O [Compound 691a, (3S)-3-[(3S)-2-Oxo-3-(3,5-dimethyl-4-hydroxybenzoyl)amino-5-hydroxyacetyl-2,3,4,5-tetrahydro-1H-1,5-benzodiazepine-1-acetylamino]-4-oxo-butyric acid] | 2900 nM | 9.9 mL/min/kg | 2.1 nM | – | – | – | – |
| O=C[C@H](CC(=O)O)NC(=O)CN1C(=O)[C@@H](NC(=O)c2nccc3ccccc23)CN(C(=O)CO)c2ccccc21 [Compound 696, (3S)-3-[(3S)-2-Oxo-3-(isoquinolin-1-oyl)amino-5-hydroxyacetyl-2,3,4,5-tetrahydro-1H-1,5-benzodiazepine-1-acetylamino]-4-oxo-butyric acid] | 2000 nM | 13 mL/min/kg | 4.5 nM | – | – | – | – |
| O=C[C@H](CC(=O)O)NC(=O)[C@@H]1CCCN2C(=O)CCN(NC(=O)c3ccc4c(c3)OCO4)C(=O)N12 [Compound 1015, [3S(4S)]3-[6,10-Dioxo-7-(3,4-methylenedioxybenzoylamino)-1,2,3,4,7,8,9,10-octahydro-6H-pyridazino[1,2-a][1,2,4]triazepine-4-carboxamido]-4-oxobutanoic acid] | – | – | – | 2500 nM | 23 mL/min/kg | 40 nM | – |
| CC(=O)Nc1ccc(C(=O)NN2CCC(=O)N3CCC[C@@H](C(=O)N[C@H](C=O)CC(=O)O)N3C2=O)cc1 [Compound 1018, [3S(4S)]3-{7-[(4-Acetamido)benzamido]-6,10-Dioxo-1,2,3,4,7,8,9,10-octahydro-6H-pyridazino[1,2-a][1,2,4]-triazepine-4-carboxamido}-4-oxobutanoic acid] | 4000 nM | 9.1 mL/min/kg | 170 nM | – | – | – | – |
| O=C[C@H](CC(=O)O)NC(=O)[C@@H]1CCCN2C(=O)CCN(NS(=O)(=O)c3ccccc3)C(=O)N12 [Compound 1027, [3S(4S)]3-(6,10-Dioxo-1,2,3,4,7,8,9,10-octahydro-7-phenylsulphonylamino-6H-pyridazino[1,2-a][1,2,4]triazepine-4-carboxamido)-4-oxobutanoic acid] | – | – | – | > 20000 nM | 60 mL/min/kg | 4000 nM | – |
| O=C[C@H](CC(=O)O)NC(=O)[C@@H]1CCCN2C(=O)CCN(NC(=O)c3cc4ccccc4s3)C(=O)N12 [Compound 1053, [3S(4S)]3-[7-(Benzo[b]thiophene-2-carbonyl)amino-6,10-dioxo-1,2,3,4,7,8,9,10-octahydro-6H-pyridazino[1,2-a][1,2,4]triazepine-4-carboxamido]-4-oxobutanoic acid] | 2000 nM | 34 mL/min/kg | 27 nM | – | – | – | – |
| O=C[C@H](CC(=O)O)NC(=O)[C@@H]1CCCN2C(=O)CCN(NC(=O)c3cc4ccccc4[nH]3)C(=O)N12 [Compound 1075, [3S(4S)]3-[6,10-Dioxo-7-(indole-2-carboxamido)-1,2,3,4,7,8,9,10-octahydro-6H-pyridazino[1,2-a][1,2,4]triazepine-4-carboxamido]-4-oxobutanoic acid] | 5000 nM | 14.5 mL/min/kg | 120 nM | – | – | – | – |
| COCC(=O)N1C[C@H](NC(=O)c2cccc3ccccc23)C(=O)N(CC(=O)N[C@H](C=O)CC(=O)O)c2ccccc21 [Compound 2201, (3S)-3-[(3S)-2-oxo-3-(1-naphthoyl)amino-5-methoxyacetyl-2,3,4,5-tetrahydro-1H-1,5-benzodiazepine-1-acetylamino]4-oxo-butyric acid] | – | – | – | 2000 nM | 60 mL/min/kg | 9 nM | 3700 nM |
